Data taken from publication PMC11862990, “Utility of 6-aza-2-thiothymine in the synthesis of novel [1,2,4]triazolo[4,3-b][1,2,4]triazin-7-one derivatives: synthesis, structure elucidation, molecular docking and in vitro anti-lung cancer activity” (RSC Advances, 2025).
Several values for one entry are separate records, joined by “and”; a condition that tells them apart may be missing. Equal entries are not always repeated. Where two headings read alike, the source gives them in different places.

What was measured:
[1] = tested on: p53 gene expression in lung cancer cell lines; experiment: qRT-PCR gene expression, p53; format: cell-based, human; conditions: treated lung cancer cell line vs negative control; order 7g, Dox, 7a
Method: The RNeasy Mini Kit (Qiagen, Hilden, Germany), augmented with a DNaseI (Qiagen) digestion step, was employed to extract total RNA from lung cancer cell lines following the manufacturer's procedure. The isolated total RNA was treated with one unit of RQ1 RNAse-free DNAse (Invitrogen, Germany) to eliminate DNA remnants, re-suspended in DEPC-treated water, and quantified photometrically at 260 nm. The purity of total RNA was evaluated using the 260/280 nm ratio, which ranged from 1.8 to 2.1.[27]
Furthermore, integrity was confirmed using ethidium bromide-stained examination of 28S and 18S bands via formaldehyde-containing agarose gel electrophoresis. Aliquots were utilized immediately for reverse transcription (RT); otherwise, they were preserved at −80 °C.
The poly(A) + RNA extracted from the lung cancer cell lines was reverse transcribed into the cDNA in a total amount of 20 μl utilizing the Revert Aid TM First Strand cDNA Synthesis Kit (Fermentas, Germany). A total of 5 μg of RNA was utilized with a master mix. The master mix comprised 50 mM MgCl2, 10× RT buffer (50 mM KCl; 10 mM Tris–HCl; pH 8.3), 10 mM of each dNTP, 50 μM oligo-dT primer, 20 IU ribonuclease inhibitor (50 kDa recombinant enzyme to suppress RNase activity), and 50 IU MuLV reverse transcriptase. Each sample mixture was centrifuged for 30 seconds at 1000 g and thereafter transferred to the thermocycler. The RT reaction was conducted at 25 °C for 10 minutes, subsequently at 42 °C for 1 hour, and concluded with a denaturation phase at 99 °C for 5 minutes. Subsequently, the reaction tubes containing RT-prepared samples were rapidly chilled in an ice chamber prior to cDNA amplification via the quantitative real-time polymerase chain reaction (qRT-PCR).
The cDNA copy number of lung cancer cell lines was determined using the StepOne™ Real-Time PCR System from Applied Biosystems (Thermo Fisher Scientific, Waltham, MA, USA). […]
The reaction protocol was divided into three stages. […] The relative quantification of the target gene to the reference gene was assessed using the 2^−ΔΔCT method.[29–31]

A549 (lung carcinoma) = experiment: MTT cytotoxicity assay, A549; format: cell-based; conditions: Homo sapiens; for cytotoxicity at 100 µg/mL: read-out: (%) Mortality A549; for IC50: 48 hour incubation
Method: (§1) Using specific human cancer cell lines, the anti-proliferative effectiveness of compounds 7a–j was evaluated in an in vitro assay. The anti-cancer activity of these compounds (7a–j) on various cancer cell lines, including PC3 (Prostate cell line), A549 (Lung carcinoma), PACA2 (Pancreatic cancer cell line) and BJ1 (normal skin fibroblast), was investigated in this study using the 3-(4,5-dimethylthiazol-2-yl)-2,5-diphenyltetrazolium bromide (MTT) test. Doxorubicin (Dox) was the standard medication used as a positive control.
(§2) All incubations were performed at 37 °C in a 5% CO2 incubator with a 95% humidified environment (Sheldon, TC2323; Cornelius, OR, USA). 96-well micro titer polypropylene plates were seeded with cells at a density of 10^4 cells per well in complete DMEM media, and the cells were allowed to adhere for 24 hours. After the media was aspirated, the tested compounds were added to the cells in a single dose of 100 μg ml^−1 in DMSO. Each well received 40 μl of MTT salt (2.5 g ml^−1) following a 48 hour incubation period. 200 μl of 10% sodium dodecyl sulfate (SDS) was added to each well after the reaction ended, and any formazan crystals that could have been produced were dissolved by two hours of incubator heating to 37 °C. The amount of formazan product was measured at 595 nm using a microplate reader (Bio-Rad Laboratories, model 3350, California, USA) with a reference wavelength of 690 nm, serving as a backdrop. Rather than the drugs under investigation, the medium was applied to the untreated cells (negative control). The examined compounds were dissolved in dimethylsulfoxide (DMSO), and the final concentration in the cells was less than 0.2%. For each compound and the control, the solvent concentration was the same.

[2] = tested on: BJ1 (normal skin fibroblast)
Method: Using specific human cancer cell lines, the anti-proliferative effectiveness of compounds 7a–j was evaluated in an in vitro assay. The anti-cancer activity of these compounds (7a–j) on various cancer cell lines, including PC3 (Prostate cell line), A549 (Lung carcinoma), PACA2 (Pancreatic cancer cell line) and BJ1 (normal skin fibroblast), was investigated in this study using the 3-(4,5-dimethylthiazol-2-yl)-2,5-diphenyltetrazolium bromide (MTT) test.
In the initial screening trial, a single dosage concentration of 100 μg ml^−1 was applied for 48 hours. The cytotoxicity of the treated cells was determined by calculating the cell death percentage (% mortality) as a percentage of untreated cells (Table 2).
Cell viability was tested using the MTT assay, 3-(4,5-dimethylthiazol-2-yl)-2,5-diphenyl-tetrazolium bromide (Bio Basic Canada Inc. Toronto, Canada).[26] Under class II biosafety regulations, the procedures were carried out in a sterile laminar air flow cabinet (Baker, SG403INT; Sanford, ME, USA). Cell lines were obtained from the American type culture collection (ATCC) as a gift from Dr Stig Linder, Karonisca Institute, Sweden. All incubations were performed at 37 °C in a 5% CO2 incubator with a 95% humidified environment (Sheldon, TC2323; Cornelius, OR, USA). 96-well micro titer polypropylene plates were seeded with cells at a density of 10^4 cells per well in complete DMEM media, and the cells were allowed to adhere for 24 hours. After the media was aspirated, the tested compounds were added to the cells in a single dose of 100 μg ml^−1 in DMSO. Each well received 40 μl of MTT salt ([…]) following a 48 hour incubation period. 200 μl of 10% sodium dodecyl sulfate (SDS) was added to each well after the reaction ended, and any formazan crystals that could have been produced were dissolved by two hours of incubator heating to 37 °C. The amount of formazan product was measured at 595 nm using a microplate reader (Bio-Rad Laboratories, model 3350, California, USA) with a reference wavelength of 690 nm, serving as a backdrop. Rather than the drugs under investigation, the medium was applied to the untreated cells (negative control). The examined compounds were dissolved in dimethylsulfoxide (DMSO), and the final concentration in the cells was less than 0.2%. For each compound and the control, the solvent concentration was the same.

PC3 (prostate cell line) = experiment: MTT cytotoxicity assay, PC3; format: cell-based; conditions: Homo sapiens, read-out: (%) Mortality PC3
Method: as §1, §2

[3] = A549, 100 μg ml^−1, 48 hours, MTT

Row | SMILES | p53 (pro-apoptotic gene) expression level [1] | cytotoxicity at 100 µg/mL (A549 (lung carcinoma); [3]) | IC50 (A549 (lung carcinoma); A549, MTT) | (%) Mortality BJ1 (cytotoxicity percentage on normal cells) ([2]; 100 μg ml^−1, 48 hours, MTT) | cytotoxicity at 100 µg/mL (PC3 (prostate cell line); 100 μg ml^−1, 48 hours, MTT) | cytotoxicity at 100 µg/mL (A549 (lung carcinoma); A549, 48 h) | (%) Mortality BJ1 (cytotoxicity percentage on normal cells) ([2]; human, 48 h, 100 μg ml^−1) | cytotoxicity at 100 µg/mL (PC3 (prostate cell line); 48 h)
1 | Cc1nn2c(C)nn(-c3ccc([N+](=O)[O-])cc3)c2nc1=O [Compound 7a, 3,6-Dimethyl-1-(4-nitrophenyl)-[1,2,4]triazolo[4,3-b][1,2,4]triazin-7(1H)-one] | elevated | 80.4 ± 0.66% | 36.6 µM | 3.5% and 3.5 ± 1.16% | 28.2 ± 0.25% |  |  | 
2 | COc1ccc(-c2nn(-c3ccccc3)c3nc(=O)c(C)nn23)cc1 [Compound 7g, 3-(4-Methoxyphenyl)-6-methyl-1-phenyl-[1,2,4]triazolo[4,3-b][1,2,4]triazin-7(1H)-one] | elevated | 82.3 ± 0.82% | 40.1 µM | 2.8% and 2.8 ± 0.71% | 14.6 ± 0.92% |  |  | 
3 | COc1cccc2c1C(=O)c1c(O)c3c(c(O)c1C2=O)C[C@@](O)(C(=O)CO)C[C@@H]3O[C@H]1C[C@H](N)[C@H](O)[C@H](C)O1 [Dox, Doxorubicin, reference compound] | elevated |  | 43.8 µM |  |  | 100% | 1.10 ± 0.52% | 100%
